Like-named read-outs stand apart in the source and are kept apart here.
Target: T1, human APJ receptor (Homo sapiens, UniProt P35414)
T1 construct: expressed in transfected cells
T1 sequence (P35414 1-380): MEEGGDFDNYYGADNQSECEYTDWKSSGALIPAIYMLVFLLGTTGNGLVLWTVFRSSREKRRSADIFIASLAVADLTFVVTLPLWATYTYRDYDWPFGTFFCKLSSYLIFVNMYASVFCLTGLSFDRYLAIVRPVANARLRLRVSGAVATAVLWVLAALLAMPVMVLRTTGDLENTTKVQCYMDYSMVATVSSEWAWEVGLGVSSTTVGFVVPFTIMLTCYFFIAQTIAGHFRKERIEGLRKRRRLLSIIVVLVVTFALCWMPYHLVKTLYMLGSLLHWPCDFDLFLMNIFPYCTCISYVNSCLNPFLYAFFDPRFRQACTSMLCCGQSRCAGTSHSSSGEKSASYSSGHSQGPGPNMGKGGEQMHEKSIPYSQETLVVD
Experiment: Intracellular cAMP accumulation assay (APJ hcAMP, HTRF)
Type: cell-based
Conditions: HEK293 cells stably expressing human APJ receptor
Outline: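 HEK293 cells stably expressing human APJ, 5,000/well, incubated 30 min at room temperature with compound plus […] and 2 μM forskolin. cAMP read by HTRF against a cAMP standard curve; EC50 from variable-slope sigmoidal fit, Ymax as % of (Pyr1)apelin-13 inhibition.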

[1] = Table 1, inhibition of forskolin-mediated cAMP production, read-out: APJ hcAMP EC50
[2] = Table 2, read-out: APJ cAMP Human EC50

SMILES | EC50 [1] | EC50 [2]
CCC[C@@H](NC(=O)c1ccc(-c2cc(Cl)ccc2-c2nc3nc(C)ccc3[nH]2)c(C(=O)O)c1)c1ccccc1 [Example 30, 5′-chloro-2′-{5-methyl-1H-imidazo[4,5-b]pyridin-2-yl}-4-{[(1R)-1-phenylbutyl]carbamoyl}-[1,1′-biphenyl]-2-carboxylic acid] | 10 to 100 nM | 10 to 100 nM
CCC[C@@H](NC(=O)c1ccc(-c2cc(Cl)ccc2-c2nc3ncccc3[nH]2)c(C(=O)O)c1)c1ccccc1 [Example 31, 5′-chloro-2′-{1H-imidazo[4,5-b]pyridin-2-yl}-4-{[(1R)-1-phenylbutyl]carbamoyl}-[1,1′-biphenyl]-2-carboxylic acid] | 10 to 100 nM | 10 to 100 nM
CCC[C@@H](NC(=O)c1ccc(-c2cc(F)ccc2-c2nc3cc(C(C)(C)C)ccc3[nH]2)c(C(=O)O)c1)c1ccccc1 [Example 39, 2′-(5-tert-butyl-1H-1,3-benzodiazol-2-yl)-5′-fluoro-4-{[(1R)-1-phenylbutyl]carbamoyl}-[1,1′-biphenyl]-2-carboxylic acid] | 10 to 100 nM | 10 to 100 nM
CCC[C@@H](NC(=O)c1ccc(-c2ccc(F)cc2-c2nc3cc(C(C)(C)C)ccc3[nH]2)c(C(=O)O)c1)c1ccccc1 [Example 40, 2′-(5-tert-butyl-1H-1,3-benzodiazol-2-yl)-4′-fluoro-4-{[(1R)-1-phenylbutyl]carbamoyl}-[1,1′-biphenyl]-2-carboxylic acid] | 10 to 100 nM | 10 to 100 nM
CCC[C@@H](NC(=O)c1ccc(-c2cc(Cl)ccc2-c2nc3ccccc3[nH]2)c(C(=O)NOC)c1)c1ccccc1 [Example 41, 2′-(1H-1,3-benzodiazol-2-yl)-5′-chloro-N2-methoxy-N4-[(1R)-1-phenylbutyl]-[1,1′-biphenyl]-2,4-dicarboxamide] | 10 to 100 nM | 10 to 100 nM
CCC[C@@H](NC(=O)c1ccc(-c2cc(Cl)ccc2-c2nc3ccccc3[nH]2)c(C(=O)NO)c1)c1ccccc1 [Example 42, 2′-(1H-1,3-benzodiazol-2-yl)-5′-chloro-N2-hydroxy-N4-[(1R)-1-phenylbutyl]-[1,1′-biphenyl]-2,4-dicarboxamide] | 10 to 100 nM | 10 to 100 nM
CCC[C@@H](NC(=O)c1ccc(-c2cc(Cl)ccc2-c2nc3ccccc3[nH]2)c(C(=O)OC)c1)c1ccccc1 [Example 43, methyl 2′-(1H-1,3-benzodiazol-2-yl)-5′-chloro-4-{[(1R)-1-phenylbutyl]carbamoyl}-[1,1′-biphenyl]-2-carboxylate] | 101 to 500 nM | 101 to 500 nM
CCC[C@@H](NC(=O)c1ccc(-c2cc(Cl)ccc2-c2nc3ccccc3[nH]2)c(C(=O)NS(C)(=O)=O)c1)c1ccccc1 [Example 44, 2′-(1H-1,3-benzodiazol-2-yl)-5′-chloro-N2-methanesulfonyl-N4-[(1R)-1-phenylbutyl]-[1,1′-biphenyl]-2,4-dicarboxamide] | 10 to 100 nM | 10 to 100 nM
CCC[C@@H](NC(=O)c1ccc(-c2cc(Cl)ccc2-c2nc3ccccc3[nH]2)c(C(=O)NS(=O)(=O)c2ccc(Cl)cc2)c1)c1ccccc1 [Example 45, 2′-(1H-1,3-benzodiazol-2-yl)-5′-chloro-N2-(4-chlorobenzenesulfonyl)-N4-[(1R)-1-phenylbutyl]-[1,1′-biphenyl]-2,4-dicarboxamide] | 101 to 500 nM | 101 to 500 nM
CCC[C@@H](NC(=O)c1ccc(-c2cc(Cl)ccc2-c2nc3cccc(C)c3[nH]2)c(C(=O)O)c1)c1ccccc1 [Example 49, 5′-chloro-2,-(4-methyl-1H-1,3-benzodiazol-2-yl)-4-{[(1R)-1-phenylbutyl]carbamoyl}-[1,1′-biphenyl]-2-carboxylic acid] | 10 to 100 nM | 10 to 100 nM
CCC[C@@H](NC(=O)c1ccc(-c2cc(Cl)ccc2-c2nc(C)c(C)[nH]2)c(C(=O)O)c1)c1ccccc1 [Example 50, 5′-chloro-2′-(4,5-dimethyl-1H-imidazol-2-yl)-4-{[(1R)-1-phenylbutyl]carbamoyl}-[1,1′-biphenyl]-2-carboxylic acid] | 10 to 100 nM | 10 to 100 nM
CCC[C@@H](NC(=O)c1ccc(-c2ccccc2-c2nc3ccccc3[nH]2)c(C(=O)O)c1)c1ccccc1 [Example 52, 2′-(1H-1,3-benzodiazol-2-yl)-4-{[(1R)-1-phenylbutyl]carbamoyl}-[1,1′-biphenyl]-2-carboxylic acid] | < 10 nM | < 10 nM
CCC[C@@H](NC(=O)c1ccc(-c2cc(OC)ccc2-c2nc3ccccc3[nH]2)c(C(=O)O)c1)c1ccccc1 [Example 53, 2′-(1H-1,3-benzodiazol-2-yl)-5′-methoxy-4-{[(1R)-1-phenylbutyl]carbamoyl}-[1,1′-biphenyl]-2-carboxylic acid] | < 10 nM | < 10 nM
CCC[C@@H](NC(=O)c1ccc(-c2ccc(Cl)cc2-c2nc3ccccc3[nH]2)c(C(=O)O)c1)c1ccccc1 [Example 54, 2′-(1H-1,3-benzodiazol-2-yl)-4′-chloro-4-{[(1R)-1-phenylbutyl]carbamoyl}-[1,1′-biphenyl]-2-carboxylic acid] | 10 to 100 nM | 10 to 100 nM
CCC[C@@H](NC(=O)c1ccc(-c2cccc(F)c2-c2nc3ccccc3[nH]2)c(C(=O)O)c1)c1ccccc1 [Example 55, 2′-(1H-1,3-benzodiazol-2-yl)-3′-fluoro-4-{[(1R)-1-phenylbutyl]carbamoyl}-[1,1′-biphenyl]-2-carboxylic acid] | 101 to 500 nM | 101 to 500 nM
CCC[C@@H](NC(=O)c1ccc(-c2cc(C(F)(F)F)ccc2-c2nc3cc(OC)ccc3[nH]2)c(C(=O)O)c1)c1ccccc1 [Example 56, 2′-(5-methoxy-1H-1,3-benzodiazol-2-yl)-4-{[(1R)-1-phenylbutyl]carbamoyl}-5′-(trifluoromethyl)-[1,1′-biphenyl]-2-carboxylic acid] | < 10 nM | < 10 nM

Results, then the molecule that gave them:

EC50 [1] | EC50 [2] | SMILES
< 10 nM | < 10 nM | CCC[C@@H](NC(=O)c1ccc(-c2cc(C)ccc2-c2nc3ccccc3[nH]2)c(C(=O)O)c1)c1ccccc1 [Example 32, 2′-(1H-1,3-benzodiazol-2-yl)-5′-methyl-4-{[(1R)-1-phenylbutyl]carbamoyl}-[1,1′-biphenyl]-2-carboxylic acid]
< 10 nM | < 10 nM | CCC[C@@H](NC(=O)c1ccc(-c2cc(F)ccc2-c2nc3ccccc3[nH]2)c(C(=O)O)c1)c1ccccc1 [Example 33, 2′-(1H-1,3-benzodiazol-2-yl)-5′-fluoro-4-{[(1R)-1-phenylbutyl]carbamoyl}-[1,1′-biphenyl]-2-carboxylic acid]
< 10 nM | < 10 nM | CCC[C@@H](NC(=O)c1ccc(-c2ccc(F)cc2-c2nc3ccccc3[nH]2)c(C(=O)O)c1)c1ccccc1 [Example 34, 2′-(1H-1,3-benzodiazol-2-yl)-4′-fluoro-4-{[(1R)-1-phenylbutyl]carbamoyl}-[1,1′-biphenyl]-2-carboxylic acid]
< 10 nM | < 10 nM | CCC[C@@H](NC(=O)c1ccc(-c2cc(C)ccc2-c2nc3cc(OC)ccc3[nH]2)c(C(=O)O)c1)c1ccccc1 [Example 35, 2′-(5-methoxy-1H-1,3-benzodiazol-2-yl)-5′-methyl-4-{[(1R)-1-phenylbutyl]carbamoyl}-[1,1′-biphenyl]-2-carboxylic acid]
< 10 nM | < 10 nM | CCC[C@@H](NC(=O)c1ccc(-c2cc(F)ccc2-c2nc3cc(OC)ccc3[nH]2)c(C(=O)O)c1)c1ccccc1 [Example 36, 5′-fluoro-2′-(5-methoxy-1H-1,3-benzodiazol-2-yl)-4-{[(1R)-1-phenylbutyl]carbamoyl}-[1,1′-biphenyl]-2-carboxylic acid]
< 10 nM | < 10 nM | CCC[C@@H](NC(=O)c1ccc(-c2ccc(F)cc2-c2nc3cc(OC)ccc3[nH]2)c(C(=O)O)c1)c1ccccc1 [Example 37, 4′-fluoro-2′-(5-methoxy-1H-1,3-benzodiazol-2-yl)-4-{[(1R)-1-phenylbutyl]carbamoyl}-[1,1′-biphenyl]-2-carboxylic acid]
< 10 nM | < 10 nM | CCC[C@@H](NC(=O)c1ccc(-c2cc(C)ccc2-c2nc3cc(C(C)(C)C)ccc3[nH]2)c(C(=O)O)c1)c1ccccc1 [Example 38, 2′-(5-tert-butyl-1H-1,3-benzodiazol-2-yl)-5′-methyl-4-{[(1R)-1-phenylbutyl]carbamoyl}-[1,1-biphenyl]-2-carboxylic acid]
< 10 nM | < 10 nM | CCC[C@@H](NC(=O)c1ccc(-c2cc(Cl)ccc2-c2nc3cc(Cl)ccc3[nH]2)c(C(=O)O)c1)c1ccccc1 [Example 47, 5′-chloro-2′-(5-chloro-1H-1,3-benzodiazol-2-yl)-4-{[(1R)-1-phenylbutyl]carbamoyl}-[1,1′-biphenyl]-2-carboxylicacid]
< 10 nM | < 10 nM | CCC[C@@H](NC(=O)c1ccc(-c2cc(Cl)ccc2-c2nc3cc(C(C)C)ccc3[nH]2)c(C(=O)O)c1)c1ccccc1 [Example 48, 5′-chloro-4-{[(1R)-1-phenylbutyl]carbamoyl}-2′-[5-(propan-2-yl)-1H-1,3-benzodiazol-2-yl]-[1,1′-biphenyl]-2-carboxylic acid]
< 10 nM | < 10 nM | CCC[C@@H](NC(=O)c1ccc(-c2cc(C(F)(F)F)ccc2-c2nc3ccccc3[nH]2)c(C(=O)O)c1)c1ccccc1 [Example 51, 2′-(1H-1,3-benzodiazol-2-yl)-4-{[(1R)-1-phenylbutyl]carbamoyl}-5′-(trifluoromethyl)-[1,1′-biphenyl]-2-carboxylic acid]
